Laboratory results taken from patent US20240368139A1, “NOVEL MODULATORS OF EHMT1 AND EHMT2 AND THERAPEUTIC USE THEREOF” (Tango Therapeutics, Inc., priority 2021, published 2024).
Like-named read-outs stand apart in the source and are kept apart here.

How the values were obtained:
H3K9me2 in HCT116 cells = test: HCT116 H3K9me2 in-cell western assay; type: cell-based; conditions: Homo sapiens, read-out: H3K9me2 ICW IC50
Outline: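 H3K9me2 signal (800 nm) was normalized to DRAQ5 DNA stain (700 nm) in an in-cell western. Cells were fixed with paraformaldehyde and probed overnight at 4° C with primary antibody.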

hERG potassium channels = hERG potassium channels (Homo sapiens, UniProt Q12809); test: In vitro hERG assay (SyncroPatch whole-cell recording); conditions: room temperature
Sequence of hERG potassium channels (Q12809 whole entry): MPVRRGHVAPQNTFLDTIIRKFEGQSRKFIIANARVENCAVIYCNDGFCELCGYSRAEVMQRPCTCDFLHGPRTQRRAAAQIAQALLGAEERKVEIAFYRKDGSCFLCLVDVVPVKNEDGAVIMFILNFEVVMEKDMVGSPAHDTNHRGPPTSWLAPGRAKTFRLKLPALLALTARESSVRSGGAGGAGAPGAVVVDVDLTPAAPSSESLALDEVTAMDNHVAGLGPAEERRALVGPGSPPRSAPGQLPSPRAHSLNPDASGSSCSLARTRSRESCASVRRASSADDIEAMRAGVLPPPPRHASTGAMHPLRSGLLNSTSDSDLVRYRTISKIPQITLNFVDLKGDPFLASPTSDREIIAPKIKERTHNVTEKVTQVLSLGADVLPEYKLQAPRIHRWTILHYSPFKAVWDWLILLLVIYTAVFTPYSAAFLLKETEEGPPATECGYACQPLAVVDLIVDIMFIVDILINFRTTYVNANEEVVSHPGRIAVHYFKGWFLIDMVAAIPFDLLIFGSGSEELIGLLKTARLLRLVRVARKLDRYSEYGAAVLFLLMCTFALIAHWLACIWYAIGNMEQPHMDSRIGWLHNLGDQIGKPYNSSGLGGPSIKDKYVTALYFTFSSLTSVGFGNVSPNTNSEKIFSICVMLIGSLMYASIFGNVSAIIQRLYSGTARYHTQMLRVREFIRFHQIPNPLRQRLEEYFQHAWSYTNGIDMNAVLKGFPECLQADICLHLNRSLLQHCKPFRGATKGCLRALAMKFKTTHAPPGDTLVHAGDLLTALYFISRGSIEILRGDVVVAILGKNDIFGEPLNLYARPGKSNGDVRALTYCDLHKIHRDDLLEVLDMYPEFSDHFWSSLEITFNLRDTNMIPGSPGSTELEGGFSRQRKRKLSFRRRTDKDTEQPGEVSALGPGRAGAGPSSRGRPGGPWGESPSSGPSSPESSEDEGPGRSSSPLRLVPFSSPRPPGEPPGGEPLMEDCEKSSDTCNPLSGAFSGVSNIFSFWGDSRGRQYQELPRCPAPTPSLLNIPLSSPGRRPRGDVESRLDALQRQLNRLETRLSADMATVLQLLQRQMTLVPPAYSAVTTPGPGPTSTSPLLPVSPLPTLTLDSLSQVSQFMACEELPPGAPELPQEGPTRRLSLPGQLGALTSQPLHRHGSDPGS
Protocol: CHO cells stably expressing hERG potassium channels from Sophion Biosciences were used for this test. The cells were cultured in a humidified and air-controlled (5% CO2) incubator at 37° C.
The CHO hERG Culture Medium consisted of 500 mL Ham's F12 (Invitrogen), 50 mL FBS (HyClone), 1 mL G418/Geneticin (Invitrogen, and 1 mL Hygromycin B (Invitrogen)
The CHO cells which were at least two days after plating and more than 75% confluent would be used for experiments. Before testing, cells were harvested using TrypLE and resuspended in the physiological solution at the room temperature.
For the electrophysiological recordings the following solutions were used (Table 5). The physiological solution and external solution were prepared at least one month. The intracellular solution was prepared in batches aliquoted, and stored at 4° C. until used.
Test compounds were dissolved in 100% DMSO to obtain stock solutions for different test concentrations. Then the stock solutions were further diluted into external solution to achieve final concentrations for testing. Visual check for precipitation was conducted before testing. Final DMSO concentration in external solution was not more than 0.30% for the test compounds.
Voltage command protocol: From this holding potential of −80 mV, the voltage was first stepped to −50 mV for 80 ms for leak subtraction, and then stepped to +20 mV for 4800 ms to open hERG channels. After that, the voltage was stepped back down to −50 mV for 5000 ms, causing a “rebound” or tail current, which was measured and collected for data analysis. Finally, the voltage was stepped back to the holding potential (−80 mV, 1000 ms). This voltage command protocol was repeated every 20000 msec. This command protocol was performed continuously during the test (vehicle control and test compound).
hERG SyncroPatch assay was conducted at room temperature. The Setup, Prime Chip, Catch and Seal Cells, Amplifier Settings, Voltage and Application Protocols were established with Biomek Software (Nanion). One addition of 40 μL of the vehicle was applied, followed by 300s for a baseline period. Then the doses of the compounds were added with 40 μL. The exposure of test compound at each concentration was no less than 300s. […] Five concentrations (0.30 μM, 1.00 μM, 3.00 μM, 10.00 μM and 30.00 μM) were tested for each compound. Minimum 2 replicates per concentration were obtained.
Within each well recording, percent of control values were calculated for each test compound concentration current response based on peak current in presence of reference control (current response/peak current)×100%. The Dose-Response curves were fit to the standard Hill equation as shown below:
Where X is the logarithm of concentration, Ipost cpd/Ipre cpa is the normalized peak current amplitude, Top is 1 and Bottom is equal to 0.
Curve-fitting and IC50 calculations were performed by GraphPad Prism 5.0.

human EHMT1 982-1266 = target: T1, human EHMT1 982-1266 (Homo sapiens, UniProt Q9H9B1); test: EHMT1 enzyme assay on histone peptide substrate (3H-SAM SPA); conditions: EHMT1 IC50, recombinant human EHMT1 982-1266, histone peptide substrate
T1 sequence (Q9H9B1 982-1266): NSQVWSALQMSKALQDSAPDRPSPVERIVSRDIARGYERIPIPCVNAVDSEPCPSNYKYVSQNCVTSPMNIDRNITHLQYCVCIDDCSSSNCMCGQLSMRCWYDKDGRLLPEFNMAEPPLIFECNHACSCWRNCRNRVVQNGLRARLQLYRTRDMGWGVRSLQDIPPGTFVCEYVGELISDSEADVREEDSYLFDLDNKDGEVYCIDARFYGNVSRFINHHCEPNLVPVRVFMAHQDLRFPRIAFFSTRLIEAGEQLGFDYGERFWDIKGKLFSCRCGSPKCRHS

human EHMT2 913-1193 = target: T2, human EHMT2 913-1193 (Homo sapiens, UniProt Q96KQ7); test: EHMT2 enzyme assay on histone peptide substrate (3H-SAM SPA); conditions: EHMT2 IC50, recombinant human EHMT2 913-1193, histone peptide substrate
T2 sequence (Q96KQ7 913-1193): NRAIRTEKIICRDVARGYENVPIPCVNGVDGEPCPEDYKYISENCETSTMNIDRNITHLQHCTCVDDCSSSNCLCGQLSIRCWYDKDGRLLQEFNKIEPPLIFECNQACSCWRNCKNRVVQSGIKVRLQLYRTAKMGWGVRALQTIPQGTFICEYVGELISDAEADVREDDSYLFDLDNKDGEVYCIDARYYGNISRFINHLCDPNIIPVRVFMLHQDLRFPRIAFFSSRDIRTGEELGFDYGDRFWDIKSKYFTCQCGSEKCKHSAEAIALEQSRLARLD

[1] = HCT-116, 72 h, HCT116 cells, 72 hours incubation
[2] = hERG IC50, CHO cells stably expressing hERG

Structure (SMILES)	IC50 (H3K9me2 in HCT116 cells; [1]) [µM]	IC50 (hERG potassium channels; hERG IC50, SyncroPatch) [µM]	IC50 (human EHMT1 982-1266) [µM]	IC50 (human EHMT2 913-1193) [µM]	IC50 (hERG potassium channels; [2]) [µM]	IC50 (H3K9me2 in HCT116 cells; HCT-116, 72 h) [µM]	IC50 (H3K9me2 in HCT116 cells; HCT-116, HCT116 cells, 72 hours incubation) [µM]
CNc1cc(C)nc(Nc2cc3c(c(C4=C[C@H]5CNC[C@H]5C4)c2)OCCO3)n1 (racemic) [Compound 134, N2-[5-(1,2,3,3a,6,6a-hexahydrocyclopenta[c]pyrrol-5-yl)-2,3-dihydro-1,4-benzodioxin-7-yl]-N4,6-dimethyl-pyrimidine-2,4-diamine]	0.1 to 0.5	> 10	0.1 to 0.5	0.1 to 0.5	–	–	–
CNc1cc(C)nc(Nc2cc3c(c(C4=CCNCC(F)C4)c2F)OCC3)n1 (single isomer, unassigned) [Compound 167]	< 0.1	5 to 10	< 0.1	< 0.1	–	–	–
CNc1cc(C)nc(Nc2cc3c(c(C4=CCNCCC4)c2F)OCC3C)n1 (single isomer, unassigned) [Compound 169]	< 0.1	5 to 10	< 0.1	< 0.1	–	–	–
CNc1cc(C)nc(Nc2cc3c(c(C4=CCNCCC4)c2F)OCC3C)n1 (single isomer, unassigned) [Compound 170]	–	< 2	–	–	–	–	–
CNc1cc(C)nc(Nc2cc3c(c(C4=CCNC(C)CC4)c2F)OCC3)n1 (single isomer, unassigned) [Compound 183]	< 0.1	> 10	< 0.1	< 0.1	–	–	–
CNc1cc(C)nc(Nc2cc3c(c(C4=CCNC(C)CC4)c2Cl)OCCC3)n1 (single isomer, unassigned) [Compound 357]	< 0.1	5 to 10	< 0.1	< 0.1	–	–	–
CNc1cc(C)nc(Nc2cc3c(c(C4=CCNC(C)CC4)c2F)OCO3)n1 (single isomer, unassigned) [Compound 369]	< 0.1	5 to 10	< 0.1	< 0.1	–	–	–
CNc1cc(C)nc(Nc2cc3c(c(C4=CCNCC(O)C4)c2C)OCC3)n1 (single isomer, unassigned) [Compound 370]	–	> 10	< 0.1	< 0.1	–	–	–
CNc1cc(C)nc(Nc2cc3c(c(C4=CCNCC(O)C4)c2F)OCC3)n1 (single isomer, unassigned) [Compound 373]	< 0.1	> 10	< 0.1	< 0.1	–	–	–
CNc1cc(C)nc(Nc2cc3c(c(C4=CCNC(C)CC4)c2Cl)OCC3)n1 (single isomer, unassigned) [Compound 374]	< 0.1	> 10	< 0.1	< 0.1	–	–	–
CNc1cc(C)nc(Nc2cc3c(c(C4=CCNCC(O)C4)c2Cl)OCC3)n1 (single isomer, unassigned) [Compound 384]	–	> 10	–	< 0.1	–	–	–
CNc1cc(C)nc(Nc2cc3c(c(OCCCN4CCCC4)c2)OCC3)n1 [Compound 103, N^4,6-dimethyl-N^2-[7-(3-pyrrolidin-1-ylpropoxy)-2,3-dihydrobenzofuran-5-yl]pyrimidine-2,4-diamine]	0.1 to 0.5	> 10	0.1 to 0.5	0.5 to 2	–	–	–
CNc1cc(C)nc(Nc2cc3c(c(C4=CCNCCC4)c2F)OCC3)n1 [Compound 291, N2-[6-fluoro-7-(2,3,4,7-tetrahydro-1H-azepin-5-yl)-2,3-dihydrobenzofuran-5-yl]-N4,6-dimethyl-pyrimidine-2,4-diamine]	< 0.1	> 10	–	–	> 10	–	–
Cc1cc(NC2CCC2)nc(Nc2cc3c(c(C4=CCN(C)CCC4)c2)OCC3)n1 [Compound 318]	0.1 to 0.5	–	0.1 to 0.5	0.5 to 2	–	–	–
CCc1cc(NC)nc(Nc2cc3c(c(C4=CCNCCC4)c2)OCC3)n1 [Compound 319]	< 0.1	–	< 0.1	< 0.1	–	–	–
Cc1cc(NCC(F)(F)F)nc(Nc2cc3c(c(C4=CCN(C)CCC4)c2)OCC3)n1 [Compound 320]	0.1 to 0.5	–	0.1 to 0.5	0.5 to 2	–	–	–
CCNc1cc(C)nc(Nc2cc3c(c(C4=CCN(C)CCC4)c2)OCC3)n1 [Compound 321]	0.1 to 0.5	–	< 0.1	0.1 to 0.5	–	–	–

Structure (SMILES)	IC50 (H3K9me2 in HCT116 cells; [1]) [µM]	IC50 (hERG potassium channels; hERG IC50, SyncroPatch) [µM]	IC50 (human EHMT1 982-1266) [µM]	IC50 (human EHMT2 913-1193) [µM]	IC50 (hERG potassium channels; [2]) [µM]	IC50 (H3K9me2 in HCT116 cells; HCT-116, 72 h) [µM]	IC50 (H3K9me2 in HCT116 cells; HCT-116, HCT116 cells, 72 hours incubation) [µM]
CNc1cc(C)nc(Nc2cc3c(c(C4=CCN(C)CCC4)c2)CCO3)n1 [Compound 333]	0.5 to 2	–	0.1 to 0.5	0.5 to 2	–	–	–
CNc1cc(C)nc(Nc2cc3c(c(N4C[C@H]5CNC[C@H]5C4)c2)OCCC3)n1 [Compound 338]	0.1 to 0.5	–	0.1 to 0.5	0.5 to 2	–	–	–
CNc1cc(C)nc(Nc2cc3c(c(N4CCCNCC4)c2)OCCC3)n1 [Compound 339]	0.1 to 0.5	–	0.1 to 0.5	0.5 to 2	–	–	–
CNc1cc(C)nc(Nc2cc3c(c(C4C[C@H]5CNC[C@H]5C4)c2)OCCC3)n1 (some centres unmarked) [Compound 340]	0.1 to 0.5	–	< 0.1	0.1 to 0.5	–	–	–
CNc1cc(C)nc(Nc2cc3c(c([C@H]4C[C@H]5CNC[C@H]5C4)c2)OCO3)n1 [Compound 342]	0.5 to 2	–	0.1 to 0.5	0.5 to 2	–	–	–
CNc1cc(C)nc(Nc2cc3c(c(C4CCCNCC4)c2)OCO3)n1 (centres unmarked) [Compound 343]	0.1 to 0.5	–	0.1 to 0.5	0.5 to 2	–	–	–
CNc1cc(C)nc(Nc2cc3c(c(C4=C[C@H]5CNC[C@H]5C4)c2)OCCC3)n1 [Compound 344]	0.1 to 0.5	–	0.1 to 0.5	0.5 to 2	–	–	–
CNc1cc(C)nc(Nc2cc3c(c(C4=CCNCC4)c2)OCCC3)n1 [Compound 345]	0.1 to 0.5	–	0.1 to 0.5	0.5 to 2	–	–	–
CNc1cc(C)nc(Nc2cc3c(c(C4=CCC(N)CC4)c2)OCCC3)n1 (centres unmarked) [Compound 346]	0.1 to 0.5	–	0.1 to 0.5	> 2	–	–	–
CNc1cc(C)nc(Nc2cc3c(c(C4=C[C@H]5CNC[C@H]5C4)c2)OCO3)n1 [Compound 347]	0.1 to 0.5	–	0.1 to 0.5	0.5 to 2	–	–	–
CNc1cc(C)nc(Nc2cc3c(c(N4C[C@H]5CNC[C@H]5C4)c2F)OCC3)n1 [Compound 351, N2-[6-fluoro-7-[rac-(3aS,6aR)-2,3,3a,4,6,6a-hexahydro-1H-pyrrolo[3,4-c]pyrrol-5-yl]-2,3-dihydrobenzofuran-5-yl]-N4,6-dimethyl-pyrimidine-2,4-diamine]	0.1 to 0.5	–	< 0.1	0.1 to 0.5	–	–	–
CNc1cc(C)nc(Nc2cc3c(c(C4=CCNCCC4)c2C)OCCC3)n1 [Compound 353, N4,6-dimethyl-N2-[7-methyl-8-(2,3,4,7-tetrahydro-1H-azepin-5-yl)chroman-6-yl]pyrimidine-2,4-diamine]	< 0.1	–	< 0.1	< 0.1	–	–	–
CNc1cc(C)nc(Nc2cc3c(c(C4=CCNCCC4)c2C)OCO3)n1 [Compound 363]	< 0.1	–	< 0.1	0.1 to 0.5	–	–	–
CNc1cc(C)nc(Nc2cc3c(c(C4C[C@H]5CNC[C@H]5C4)c2F)OCC3)n1 (some centres unmarked) [Compound 437, N2-[7-(1,2,3,3a,4,5,6,6a-octahydrocyclopenta[c]pyrrol-5-yl)-6-fluoro-2,3-dihydrobenzofuran-5-yl]-N4,6-dimethyl-pyrimidine-2,4-diamine]	0.1 to 0.5	–	0.5 to 2	0.5 to 2	–	–	–
CNc1cc(C)nc(Nc2ccc(OC)c(C3=CCN(C)CCC3)c2)n1 [Reference Compound A, reference compound]	–	5 to 10	< 0.1	–	5 to 10	< 0.1	–
CNc1cc(C)nc(Nc2ccc(OC)c(C3=CCNCCC3)c2)n1 [Reference Compound B, reference compound]	–	5 to 10	–	< 0.1	5 to 10	–	< 0.1
